Reference: US11096885B2, “Composition for enhancing skin elasticity or improving skin wrinkles comprising ginseng cell lysate” (AMOREPACIFIC CORPORATION, priority 2018, dated 2021)

Tested on: MMP-1
Experiment: MMP-1 ELISA assay: inhibition of MMP-1 production in UVB-irradiated human skin fibroblasts
Type: cell-based
Settings: HS68 cells; for MMP-1 (%): untreated control = 100, UVB group = 463.00
Description: The MMP-1 ELISA assay was performed to confirm the effect of the composition of Example 1 and Comparative Example 1 on the inhibition of MMP-1 production, which is a skin tissue degrading enzyme, in UVB-irradiated human skin fibroblasts.
Specifically, HS68 cells, which are human skin fibroblasts, were seeded in a 48-well plate at a concentration of 2×10^4 cells/well, and then cultured in a DMEM medium (WelGene) containing 10% fetal bovine serum (FBS, WelGene) and 1% penicillin/streptomycin under a condition of 37° C. and 5% CO2. Then, the medium was removed and washed with DPBS (Dulbecco's Phosphate-Buffered Saline). Then, the cells from Example 1 and Comparative Example 1 diluted by concentration (125 ppm, 250 ppm, 500 ppm) in a DMEM medium containing no fetal bovine serum (FBS) and pretreated for 6 hours. Then, the medium was removed and was filled with 100 μl of DPBS, and then was irradiated at UVB 30 mJ/cm^2. The cells from Example 1 and Comparative Example 1 were diluted by concentration (250 ppm, 500 ppm) in a DMEM medium containing no fetal bovine serum (FBS), treated and cultured for 48 hours. After collecting the medium of the cultured cells, the amount of MMP-1 secretion was measured using a human MMP-1 ELISA kit (R&D Systems), and the absorbance was measured at 450 nm using an ELISA reader (Infinite M200Pro, Tecan). The cells attached to the bottom of the plate were washed with DPBS, lysed with 1N NaOH, and the amount of protein was measured using a BCA assay (Pierce® BCA protein assay kit, Thermo Scientific). The amount of MMP-1 secretion per certain protein was corrected and expressed as a percentage (%). As a positive control group, 1 μM and 10 μM of retinoic acid (RA) were used. Statistical significance between samples was used by the student's t-test and was analyzed to be statistically significant when the p-value was 0.05 or less (* P<0.05, ** p<0.01, *** p<0.001).

## CC1=C(/C=C/C(C)=C/C=C/C(C)=C/C(=O)O)C(C)(C)CCC1 [RA, retinoic acid]
UVB 30 mJ/cm^2, 1 μM
  reduction of MMP-1 secretion as compared to the UVB irradiation group: 111.06%
  MMP-1 (%): 351.95 ± 22.95%
UVB 30 mJ/cm^2, 10 μM
  reduction of MMP-1 secretion as compared to the UVB irradiation group: 239.71%
  MMP-1 (%): 223.29 ± 114.85%
